Molecules are shown by their SMILES. Records with an inconclusive call do not appear.

In general, AC50 refers to the concentration at which the activity in the assay is half-maximal.

This assay deals with IOSE-T80 viability, CellTiterGlo ATP luminescence, 96 h. Briefly: cytotoxicity in IOSE-T80 ovarian epithelial cells, dose response, selectivity assay for PAX8 inhibitor project, cell-based, cherry-pick (AID 687032).
Take `COc1ccc(F)cc1-c1cc(NC=O)c2ncc(-c3cc(OC)c(OC)c(OC)c3)n2c1`: the AC50 is below 260 nM. Take `Cc1ccc(S(=O)(=O)N(C)C[C@@H]2Oc3cc(C#Cc4ccncc4)ccc3S(=O)(=O)N([C@H](C)CO)C[C@H]2C)cc1`: the AC50 is 3050 nM. The same measure for `O=C(Nc1ccccc1)NN(C(=O)CCl)c1ccccc1`: 8600 nM. On to `Cn1c(SCC(=O)c2ccccc2)nnc1-c1ccccn1`, for which the AC50 is below 260 nM. The same measure for `C[C@@H]1CN([C@@H](C)CO)C(=O)Cc2cc(NC(=O)NC3CCCCC3)ccc2O[C@@H]1CN(C)Cc1ccc(-c2ccccc2)cc1`: 27800 nM. For `CCC(C)(O)C(=O)OC1C(=O)OC2CC3C(C)=CC(=O)C(O)C3(C)C3C4(O)OCC23C1C(C)C4O` (centres undefined), the half-maximal activity concentration (AC50) was 8840 nM. On to `COc1ccc(-c2nc3c(c(SCC(=O)Nc4cccc(O)c4)n2)Cc2c(CO)cnc(C)c2O3)cc1`, for which the AC50 is 8550 nM.

In the case of `O=C(C[C@H]1CC[C@H]2[C@@H](COC[C@@H](O)CN2Cc2ccc(Oc3ccccc3)cc2)O1)N1CCCCC1`, the AC50 was below 260 nM. As to `COc1cc(C2C3=C(COC3=O)Oc3cc4c(cc32)OCO4)cc(OC)c1O` (centres undefined), the AC50 was below 260 nM. Regarding `C#CCN(C[C@@H]1[C@@H](OC(=O)NCC2CCCCC2)[C@@H](OC(=O)NCC2CCCCC2)Cn2c(=O)ccc(=O)n21)S(=O)(=O)c1ccc(C)cc1`, the AC50 is below 260 nM.

In the case of `COc1cccc(N2CCN(C(=O)c3ccc(CS(=O)c4ccccc4Cl)o3)CC2)c1` (centres undefined), the AC50 was below 260 nM. As for `COCCn1c(C)cc(C2=NNC(=NC3CC3)SC2)c1C`, the AC50 is below 260 nM. In the case of `C[C@@H]1CN([C@H](C)CO)S(=O)(=O)c2ccc(C#CC3CCCC3)cc2O[C@@H]1CN(C)C(=O)Cc1ccncc1`, the AC50 is below 260 nM. `C[C@@H]1CCCCO[C@@H](CN(C)Cc2ccc(Cl)c(Cl)c2)[C@H](C)CN([C@H](C)CO)C(=O)c2cc(NC(=O)Nc3ccc(C(F)(F)F)cc3)ccc2O1`: the AC50 was 35600 nM. For the compound `C[C@@H]1CCCCO[C@@H](CN(C)C(=O)Nc2cccc3ccccc23)[C@H](C)CN([C@H](C)CO)C(=O)c2cc(NS(=O)(=O)c3ccccc3)ccc2O1`, the AC50 is below 260 nM. Turning to `COc1cccc(S(=O)(=O)N2CC[C@H]3[C@@H](CO)N(C)c4ccc(C#Cc5ccc(F)cc5)cc4[C@H]32)c1`, the AC50 is 34500 nM. In the case of `C[C@H](CO)N1C[C@H](C)[C@H](CN(C)S(=O)(=O)c2ccc(Cl)cc2)OCCCC[C@H](C)Oc2ccc(NS(=O)(=O)c3ccc(F)cc3)cc2C1=O`, the AC50 was below 260 nM. On to `Cc1cnc(NC(=O)CSc2nnc(C)n2N)s1`, for which the AC50 is below 260 nM. Turning to `C[C@H](CO)N1C[C@H](C)[C@@H](CN(C)CC2CCCCC2)Oc2c(NC(=O)CCCCCC(=O)Nc3ccccc3N)cccc2C1=O`, the AC50 was below 260 nM. Regarding `CCOC(=O)c1c(-c2ccc(F)cc2)csc1NC(=O)CN1C(=O)NC2(CCCCC2C)C1=O` (centres undefined), the AC50 is 9070 nM.

As to `COc1ccc(S(=O)(=O)Nc2ccc3c(c2)C(=O)N([C@@H](C)CO)C[C@H](C)[C@@H](CN(C)Cc2ccc(C(F)(F)F)cc2)OCCCC[C@H](C)O3)cc1`, the AC50 was below 260 nM.

Turning to `CCCn1c(C)cc(C(=O)CN2C(=O)c3ccccc3S2(=O)=O)c1C`, the half-maximal activity concentration (AC50) was below 260 nM. Regarding `C(=Cc1cnc2ccccc2n1)c1ccc2c(c1)OCO2`, the concentration at half-maximal activity (AC50) is 7890 nM.

For `COc1ccc(Cn2cc3c(-c4ccc(F)cc4)nnc-3c3cc(OC)c(OC)cc32)cc1`, the AC50 is 8490 nM. Regarding `CCOc1ccc(-n2c(=S)sc3c(=O)[nH]c(SCC(=O)NCC4CCCO4)nc32)cc1` (centres undefined), the AC50 is below 260 nM.

Turning to `Nc1nc(=S)c2[nH]cnc2[nH]1`, the concentration at half-maximal activity (AC50) was below 260 nM. As to `COc1ccc(NC(=O)Nc2ccc3c(c2)C(=O)N([C@@H](C)CO)C[C@@H](C)[C@@H](CN(C)CC2CCCCC2)OCCCC[C@@H](C)O3)cc1`, the half-maximal activity concentration (AC50) is below 260 nM.

`CC1CN(CC(O)COC(c2ccccc2)c2ccccc2)CC(C)O1` (centres undefined): the AC50 was below 260 nM. Consider `COc1ccc2c(COC(=O)CNC(=O)C34CC5CC(CC(C5)C3)C4)cc(=O)oc2c1`, for which the AC50 is below 260 nM. The same measure for `Cc1ccc(S(=O)(=O)Nc2ccc3c(c2)C(=O)N([C@H](C)CO)C[C@@H](C)[C@H](CN(C)Cc2ccc(C(F)(F)F)cc2)OCCCC[C@@H](C)O3)cc1`: below 260 nM. As to `COc1cc(OC)cc(C(=O)NCC(=O)OCC(=O)c2cc(C)n(Cc3ccco3)c2C)c1`, the AC50 was below 260 nM. As for `COc1ccc(S(=O)(=O)Nc2ccc3c(c2)C(=O)N([C@H](C)CO)C[C@H](C)[C@@H](CN(C)Cc2ccc(Cl)c(Cl)c2)OCCCC[C@@H](C)O3)cc1`, the AC50 is 6540 nM. In the case of `COc1cccc(-c2ccc([C@H]3[C@@H](CO)N(C(=O)Cc4ccccc4)[C@H]3C#N)cc2)c1`, the AC50 was below 260 nM. `C[C@@H]1CN([C@H](C)CO)C(=O)c2cc(NS(=O)(=O)c3ccc(Cl)cc3)ccc2O[C@@H](C)CCCCO[C@@H]1CN(C)Cc1ccccc1`: the AC50 is below 260 nM. For the compound `CC(C)CCCCCCCCCCCCC(=O)NCC(=O)NC1C(C)OC(Nc2ncnc3nc[nH]c23)C(O)C1O` (centres undefined), the AC50 was below 260 nM.

As for `C[C@H](CO)N1C[C@H](C)[C@H](CN(C)Cc2ccc(C(F)(F)F)cc2)OCCCC[C@H](C)Oc2ccc(NS(=O)(=O)c3ccccc3)cc2C1=O`, the AC50 is below 260 nM. The same measure for `COc1ccc(CC2C(=O)NC(C)C(=O)N(C)C3Cc4ccc(cc4)Oc4cc(ccc4O)CC(C(=O)NC(C)C(=O)NC(C)C(=O)N2C)N(C)C3=O)cc1` (centres undefined): 27800 nM; for `Cc1nnc(N/N=C/c2cc(C)n(-c3ccc(F)cc3)c2C)n1N`: 10200 nM. As to `Cc1ccccc1CNC(=O)C1CCCN(c2nnc(C)c3c(C)n(-c4ccccc4)nc23)C1` (centres undefined), the AC50 was below 260 nM. Turning to `Cn1c(CCN2CCCC2)nc2cc(NS(=O)(=O)c3ccccc3)ccc21`, the AC50 is below 260 nM. Turning to `O=C(NC12CC3CC(CC(C3)C1)C2)c1ccc([N+](=O)[O-])o1`, the AC50 is below 260 nM. For the compound `CCN1CCN(c2nc(-c3cccs3)nc3ccccc23)CC1`, the AC50 is 10400 nM.

With `Cc1ccc(-c2csc3ncnc(Sc4nnc(CN5CCCCCC5=O)o4)c23)cc1`, the AC50 was 8670 nM. For `CC(=O)[C@@]1(O)Cc2c(O)c3c(c(O)c2[C@H](O[C@H]2C[C@H](N)[C@H](O)[C@H](C)O2)C1)C(=O)c1ccccc1C3=O` the value was 8800 nM. Regarding `Cc1cc(Nc2ccc3c(c2)OCCO3)c2ccccc2n1`, the AC50 is below 260 nM. Take `O=C(Nc1ccc(Cl)c(Cl)c1)N[C@@H]1CC[C@H](CCn2cc(C3CCCCC3)nn2)O[C@H]1CO`: the AC50 was below 260 nM. For `COc1ccc(S(=O)(=O)Nc2ccc3c(c2)C(=O)N([C@H](C)CO)C[C@H](C)[C@H](CN(C)Cc2ccc(C(F)(F)F)cc2)OCCCC[C@H](C)O3)cc1`, the AC50 was 3450 nM.

On to `COc1ccc(NC(=O)c2c(Nc3ccccc3)sc(C(=O)c3ccc(F)cc3)c2N)cc1`, for which the AC50 is below 260 nM. Consider `Cn1ncc2c(O/N=C(\N)c3ccc(C(F)(F)F)cc3)ncnc21`, for which the AC50 was below 260 nM.

On to `O=C(C(=O)N(Cc1ccccc1)Cc1ccccc1)c1c(-c2ccccc2)[nH]c2ccccc12`, for which the AC50 is below 260 nM.

`C[C@H](CO)N1C[C@H](C)[C@H](CN(C)S(=O)(=O)c2ccc(Cl)cc2)OCCCC[C@H](C)Oc2ccc(NC(=O)Nc3ccc(C(F)(F)F)cc3)cc2C1=O`: the AC50 is below 260 nM. With `O=C(c1cc([N+](=O)[O-])ccc1N1CCOCC1)N1CCN(c2ccccc2)CC1`, the concentration at half-maximal activity (AC50) was below 260 nM. Take `O=C1CN(C(=O)Cn2ncc(Cl)c(Cl)c2=O)c2ccccc2N1`: the AC50 was below 260 nM.

Regarding `COc1ccc(S(=O)(=O)Nc2ccc3c(c2)CC(=O)N([C@@H](C)CO)C[C@@H](C)[C@@H](CN(C)Cc2ccc(-c4ccccc4)cc2)O3)cc1`, the AC50 is below 260 nM. The same measure for `C[C@@H]1CN([C@H](C)CO)C(=O)c2cc(NC(=O)Nc3ccc(C(F)(F)F)cc3)ccc2O[C@@H](C)CCCCO[C@H]1CN(C)Cc1ccccc1`: below 260 nM. Take `Cc1ccc(Cl)cc1N1CCN(C(=O)c2noc(C)c2[N+](=O)[O-])CC1`: the AC50 is below 260 nM. As to `O=C(CCC(=O)c1ccccc1)NCCc1c[nH]c2ccccc12`, the AC50 is below 260 nM. With `COc1cc(OC)c2c(-c3cccc(-c4ccc(OC)c(F)c4)c3)cc(=O)oc2c1`, the AC50 was 10700 nM.

Consider `O=C(Cc1nnc(NC(=O)c2ccccc2)s1)N/N=C/c1ccco1`, for which the concentration at half-maximal activity (AC50) was below 260 nM. On to `C[C@@H]1CCCCO[C@H](CN(C)C(=O)C2CCCCC2)[C@@H](C)CN([C@@H](C)CO)C(=O)c2cc(NC(=O)Nc3ccc(F)cc3)ccc2O1`, for which the AC50 was below 260 nM. Take `C[C@@H]1CCCCO[C@H](CN(C)Cc2ccc(C(F)(F)F)cc2)[C@H](C)CN([C@@H](C)CO)C(=O)c2cc(NS(=O)(=O)c3cccs3)ccc2O1`: the AC50 was 33500 nM. For `Cn1nnnc1Sc1ncnc2scc(-c3cccc(S(C)(=O)=O)c3)c12` the value was 8510 nM; for `C[C@@H]1CN([C@H](C)CO)C(=O)c2cc(NC(=O)Nc3ccccc3)ccc2O[C@@H](C)CCCCO[C@@H]1CN(C)Cc1ccc(C(F)(F)F)cc1`, below 260 nM; for `CC(C)(C)[C@H](N)C(=O)N[C@H]1CCC2C3CC=C4C[C@@H](O)CC[C@]4(C)C3CC[C@@]21C` (some centres undefined), below 260 nM. For the compound `CCN(CC)S(=O)(=O)c1cc(NC(=O)Cn2ncc(Cl)c(Cl)c2=O)ccc1C`, the AC50 is below 260 nM.

On to `O=C(O)c1cccc(COc2ccc3c(c2)CCC3)c1`, for which the concentration at half-maximal activity (AC50) was below 260 nM. For the compound `C[C@H](CO)N1C[C@H](C)[C@@H](CN(C)S(=O)(=O)c2ccc(Cl)cc2)OCCCC[C@H](C)Oc2ccc(NS(=O)(=O)c3ccc(Cl)cc3)cc2C1=O`, the AC50 is below 260 nM. Consider `COc1ccc(-n2nc3c(N4CCC(C(=O)NCc5cccc(C)c5)CC4)nnc(C)c3c2C)cc1`, for which the AC50 was below 260 nM.

Turning to `O=C(Nc1cccc(NC(=O)c2cccs2)c1)c1ccc([N+](=O)[O-])o1`, the AC50 was 8620 nM.

Turning to `C[C@H]1CCCCO[C@H](CN(C)Cc2ccc(C(F)(F)F)cc2)[C@@H](C)CN([C@@H](C)CO)C(=O)c2cc(NS(=O)(=O)c3ccc(Cl)cc3)ccc2O1`, the AC50 is below 260 nM. As to `CCOc1ccc(NC(=O)Nc2cc(OCC(F)(F)F)cc(OCC(F)(F)F)c2)cc1`, the AC50 is 8810 nM. For `CN1c2ccc(-c3cccc(F)c3)cc2[C@@H]2[C@@H](CCN2C(=O)Cc2ccccc2)[C@@H]1CO`, the AC50 is below 260 nM.

On to `Cc1ccc(C(=O)N/C(=C\c2ccc(-c3ccc(Br)cc3)o2)C(=O)NCCCN(C)C)cc1`, for which the AC50 is 9400 nM.

With `CCOC(=O)Nc1ccc2c(c1)N(C(=O)CCN(CC)CC)c1ccccc1S2=O` (centres undefined), the AC50 was below 260 nM.

For the origin of these results see PubChem BioAssay AID687032 (Broad Institute, 2013).
